Test results reported in PMC8070394, “Determination of Colistin in Contents Derived from Gastrointestinal Tract of Feeding Treated Piglet and Broiler” (Antibiotics, 2021).

Columns and labels:
[1] = Colistin in contents of swine gastrointestinal segments and feces after feeding treatment (UPLC-MS/MS); assay type: in vivo, piglets (Duroc × Landrace × Large white); conditions: n = 4
Experimental: (§1) Eight weaned piglets (Duroc × Landrace × Large white) 3~4 weeks of age were used in a 14-day feeding trial. First, all piglets were fed with the base diet (Table S1) for an adapting period of 6 days. Subsequently, four piglets fed the base diet were kept as untreated controls, and the other four piglets were fed the base diet, which was supplemented with colistin sulphate at 20 mg/kg of body weight for 14 consecutive days. Thereafter, feces were collected, and the piglets were slaughtered to obtain contents from the swine gastrointestinal segments, including stomach, duodenum, jejunum and cecum. The sixteen cobb broilers 1–3 days in age were selected and fed with a drug-free balanced diet (Table S2) during the 14-day adaption period and the subsequent treatment period. Then, eight broilers were kept as untreated controls, and the other eight broilers were fed with colistin at 20 mg/kg of body weight for 14 consecutive days. At the end of the trial, treated and untreated animals were sacrificed, and the contents derived from the gizzard, proventriculus, duodenum, jejunum, ileum and cecum were recovered. All samples were stored at −80 °C before being analyzed.
(§2) The extraction procedure was based on the methods developed by Fu with some modifications. Briefly, 2 g of samples was lyophilized to dryness and extracted twice with 10 mL of 10% trichloroacetic acid: acetonitrile (40:60, v/v), and the combined extraction solution was adjusted to pH 9.0. Thereafter, the extraction solution was applied to Oasis WCX SPE cartridges which were prewashed with 3 mL of methanol and 3 mL of water. The cartridges were then rinsed with 3 mL of water, 3 mL of methanol and 3 mL of 5% formic acid in water. Eventually, the colistin was eluted with 5 mL of 20% formic acid in methanol. The eluent was evaporated to dryness by vacuum centrifugation at 50 °C and resuspended in 500 μL of deionized water prior to measurement using an UPLC–MS/MS system.
(§3) Chromatography of colistin was conducted with an UltiMate 3000 UPLC system (Thermo Fisher, San Jose, CA, USA) equipped with an Acquity UPLC BEH C18 column (2.1 mm × 100 mm; 1.7 µm particle size; Waters, Milford, MA, USA). The mobile phase A was 0.2% formic acid, 5% acetonitrile in H2O; B was 100% acetonitrile. The colistin was resolved with a linear gradient starting from 95% A solvent to 70% B solvent over 5 min and then to 5% A at 10 min, at a flow rate of 200 µL/min.
(§4) MS spectra were acquired at positive ionization mode with a hybrid quadrupole-obitrap mass spectrometer (Q Exactive, Thermo Fisher, San Jose, CA, USA). The sheath gas flow rate was 25 mL/min; the auxiliary gas flow rate was 15 mL/min; the spray voltage was 3.2 kV; and the temperature of the capillary tube was set to 320 °C. One microscan was used for data acquisition. The resolution settings were full MS target 70,000 and MS/MS target 17,500; normalized CE 20% and 22% were employed for colistin A and colistin B, respectively. Data manipulations were employed using Xcalibur version 4.0 software. Quantitative analyses were conducted in the selective reaction monitoring (SRM) scan mode. The two most abundant fragment ions were selected from each analyte for analysis (Figure S1). The transitions monitored and approximate chromatographic retention times (tR) were as follows: colistin A ([M + 3H]^3+), m/z 390.60 > 101.0696, 241.1860, tR = 7.30 min; colistin B ([M + 3H]^3+), m/z 385.90 > 101.0696, 227.1710, tR = 6.85 min. The mass tolerance was set to 5 ppm for fragment ions.
(§5) Colistin-treated samples and controls were subject to analysis using the proposed method, including stomach, duodenum, jejunum and cecum content samples and feces samples recovered from 4 treated and 4 untreated piglets; gizzard, proventriculus, duodenum, jejunum, ileum and cecum content samples and feces samples from 8 treated and 8 control cobb broilers. […]

[2] = pigs, single oral administration, cited from earlier work
From the text: Nutrients and drugs are known to be mainly absorbed in the small intestine of animals and humans after oral administration. The dosing regimen of colistin in clinical use depends upon the pharmacokinetics and pharmacodynamics of colistin in humans. Meanwhile, the absorption of oral drugs in the digestive tract is crucial for the dosing regimen as well. Unlike for human medicine, a few studies have been conducted in animals to evaluate the pharmacokinetics and pharmacodynamics of colistin following oral administration. One study has measured colistin in the whole intestin ...

[3] = Colistin in contents of broiler gastrointestinal segments and feces after feeding treatment (UPLC-MS/MS); assay type: in vivo, cobb broilers; conditions: broilers fed colistin 20 mg/kg body weight for 14 days
Experimental: as §1, §2, §3, §4, §5

average amount of colistin in content recovered from the cecum, based on dried weight ([1]; piglets fed colistin sulphate 20 mg/kg body weight for 14 days, cecum content, dried weight): ~ 3300 ng/g | concentration of colistin in content from the cecum ([1]; piglets fed colistin sulphate 20 mg/kg body weight for 14 days, cecum content, wet weight, UPLC-MS/MS, mean ± standard deviation): 398.3 ± 161.2 ng/g | average concentration of colistin in samples from the duodenum ([1]; piglets fed colistin sulphate 20 mg/kg body weight for 14 days, duodenum content, UPLC-MS/MS): ~ 30 ng/g | average amount of colistin in feces, based on dried weight ([1]; piglets fed colistin sulphate 20 mg/kg body weight for 14 days, feces, dried weight): ~ 3300 ng/g | average concentration of colistin in samples from the jejunum ([1]; piglets fed colistin sulphate 20 mg/kg body weight for 14 days, jejunum content, UPLC-MS/MS): ~ 30 ng/g | average concentration of colistin in feces samples ([1]; piglets fed colistin sulphate 20 mg/kg body weight in diet for 14 consecutive days, feces, wet weight, UPLC-MS/MS, mean): approximately 1248.3 ng/g | decrease of the amount of colistin from the cecum to feces [3]: at least 5 fold | estimate of colistin in samples from the cecum, regardless of the moisture ([3]; cecum content, dried weight, mean ± standard deviation, n = 8): 15766.0 ± 9249.2 ng/g | average concentration of colistin, cecum ([3]; cecum content, wet weight, mean, n = 8): 4882.9 ng/g | average concentration of colistin, duodenum ([3]; duodenum content, wet weight, mean, n = 8): 383.7 ng/g | estimate of colistin in samples from feces, regardless of the moisture ([3]; feces, dried weight, mean ± standard deviation, n = 8): 823.4 ± 616.4 ng/g | average concentration of colistin in feces samples ([3]; feces, wet weight, mean, n = 8): 147.7 ng/g | average concentration of colistin, gizzard ([3]; gizzard content, wet weight, mean, n = 8): 1145.7 ng/g | average concentration of colistin, ileum ([3]; ileum content, wet weight, mean, n = 8): 2056.1 ng/g | average concentration of colistin, jejunum ([3]; jejunum content, wet weight, mean, n = 8): 1572.3 ng/g | average concentration of colistin, proventriculus ([3]; proventriculus content, wet weight, mean, n = 8): 448.3 ng/g
Substance: Colistin
peak concentration of colistin in samples from the duodenum to ileum, highest level ([2]; HPLC-Fluorescence after derivatization): ~ 90,000 ng/g | colistin in samples from duodenum to ileum after 4 h ([2]; after 4 h, HPLC-Fluorescence): no colistin was detected
